Assay results taken from patent US20230331707A1, “PROGRAMMED CELL NECROSIS INHIBITOR, PREPARATION METHOD THEREFOR, AND USE THEREOF” (Shanghai Institute of Organic Chemistry, Chinese Academy of …, priority 2020, published 2023).

System: MEFs cells expressing RIPK1 WT
Test: TSZ-induced programmed necrosis in MEFs cells expressing RIPK1 WT
Type: cell-based, mouse
Settings: 600 nM
Description: The adopted biological test protocol was: the effect of compounds on programmed necrosis in MEFs cells (mouse embryonic fibroblasts) with RIPK1 S161E mutation.
In order to verify the inhibitory effect of the compound of the present invention on the highly activated RIPK1 kinase at the cellular level, MEFs cells stably expressing RIPK1 S161E (simulating the activation state of RIPK1 after phosphorylation) were selected, TNFα-SM164-zVAD (Caspase inhibitor for inhibiting apoptosis) (TSZ) was used in combination to induce programmed cell necrosis, and cell viability was calculated by detecting chemiluminescence values, thereby obtaining the biological activity of the compound in inhibiting programmed necrosis.
Methods: MEFs cells replenished by RIPK1: WT-RIPK1, S161A-RIPK1 and S161E-RIPK1 were replenished in RIPK1 stable knockout cells respectively. After stable expression and being cultured to logarithmic growth phase, the cells were collected, and centrifuged at 1000 rpm for 5 min. The supernatant was discarded. Cell concentration was adjusted to 5×10^4/mL, and cells were inoculated into 384-well plates with 40 μL per well. Cell culture medium diluted SM164 (100 nM), zVAD (50 μM) and compound, each […], were added to the corresponding wells. After pretreatment at 37° C. for 1 h, 5 μL of cell culture medium diluted TNF (50 ng/mL) was added to each well in the stimulated group and 5 μL of culture medium was added to the control group. […] The unstimulated DMSO control wells (Ctrl) were taken as 100% cell viability. EC50 values of the compounds were calculated using Prism Graphpad statistical software.

## Cn1ncc(C(=O)NCc2ccc(-n3cnc4c(N)ncnc43)cc2)c1Cc1ccccc1 [QY-10-40]
  inhibition of programmed necrosis: can effectively inhibit the occurrence of programmed necrosis
